From US20260071234A1, “METHODS AND COMPOSITIONS FOR HEMATOPOIETIC STEM CELL ENHANCEMENT” (THE REGENTS OF THE UNIVERSITY OF CALIFORNIA, priority 2022, published 2026)

Columns and labels:
HLF+ HSC = settings: day 10 cultures; applicant's analysis of published dataset; cited from earlier work
CB HSPCs = assay: FACS based endocytosis assay, internalized fluorescent dextran in CB HSPCs; assay type: cell-based, human; settings: MYCT1 KD CB HSPCs cultured 5 days; chlorpromazine 10 μM, MbCD 1 mM
Description: (§1) HSPC or endothelial cells transduced with control, MYCT1 KD, or MYCT1 OE lentiviral vectors were incubated with fluorescent dextran (pHrodo Red Dextran, ThermoFisher Scientific P10361) 40 μg/ml for 30 minutes at 37° C. After incubation, cells were immediately placed on ice, washed with ice-cold DPBS with 5% FBS and resuspended into single cell suspension for FACS analysis. 7AAD was included to discriminate dead cells.

E4EC = assay: FACS based endocytosis assay, internalized fluorescent dextran in E4EC; assay type: cell-based, human; settings: MYCT1 KD E4EC, 10 μM chlorpromazine
Description: as §1

Row | Molecule | MYCT1 expression in HLF+ HSC (HLF+ HSC) | dextran internalization after pre-treatment with endocytosis inhibitor (CB HSPCs) | internalized fluorescent dextran after pre-treatment with endocytosis inhibitor (E4EC)
1 | CC(C)n1cnc2c(NCCc3ccc(O)cc3)nc(-c3csc4ccccc34)nc21 [SR1] | minimal MYCT1 expression |  | 
2 | methyl-beta-cyclodextrin |  | not sufficient to restore hyperactive endocytosis | 
3 | Cn1nnc(-c2ccc3c(c2)[nH]c2nc(Cc4ccccc4)nc(NC4CCC(N)CC4)c23)n1 (centres unmarked) [UM171] | minimal MYCT1 expression |  | 
4 | CN(C)CCCN1c2ccccc2Sc2ccc(Cl)cc21 [chlorpromazine] |  | not sufficient to restore hyperactive endocytosis | dampened the increased endocytosis caused by MYCT1 loss
